# According to patent US8912198B2, “Compounds useful as inhibitors of ATR kinase” (Vertex Pharmaceuticals Incorporated, priority 2012, dated 2014):
# What was measured:
# [1] = test system: HCT116 colorectal cancer cells; assay: Cisplatin sensitization assay, 96 h cell viability (MTS); format: cell-based; conditions: concentration of compound required to reduce the IC50 of Cisplatin alone by at least 3-fold; HCT116, 96 h MTS
# Procedure: Compounds can be screened for their ability to sensitize HCT116 colorectal cancer cells to Cisplatin using a 96 h cell viability (MTS) assay. […] Compounds and Cisplatin are then both added simultaneously to the cell media in 2-fold serial dilutions from a top final concentration of 10 μM as a full matrix of concentrations in a final cell volume of 200 μl and the cells are then incubated at 37° C. in 5% CO2. After 96 h, 40 μl of MTS reagent (Promega G358a) is added to each well and the cells are incubated for lh at 37° C. in 5% CO2. Finally, absorbance is measured at 490 nm using a SpectraMax Plus 384 reader (Molecular Devices) and the concentration of compound required to reduce the IC50 of Cisplatin alone by at least 3-fold (to 1 decimal place) can be reported.
# [2] = molecular target: T1, intracellular ATR (Homo sapiens, UniProt Q13535); assay: Cellular ATR inhibition assay, H2AX phosphorylation in hydroxyurea treated HT29 cells; format: cell-based; conditions: 2 mM hydroxyurea, phosphorylated H2AX Ser139 positive nuclei
# T1 construct: endogenous in cells; host or cells: HT29
# Procedure: Compounds can be screened for their ability to inhibit intracellular ATR using an immunofluorescence microscopy assay to detect phosphorylation of the ATR substrate histone H2AX in hydroxyurea treated cells. HT29 cells are plated at 14,000 cells per well in 96-well black imaging plates (BD 353219) in McCoy's 5A media (Sigma M8403) supplemented with 10% foetal bovine serum (JRH Biosciences 12003), Penicillin/Streptomycin solution diluted 1:100 (Sigma P7539), and 2 mM L-glumtamine (Sigma G7513), and allowed to adhere overnight at 37° C. in 5% CO2. Compounds are then added to the cell media from a final concentration of 25 μM in 3-fold serial dilutions and the cells are incubated at 37° C. in 5% CO2. After 15 min, hydroxyurea (Sigma H8627) is added to a final concentration of 2 mM.
# After 45 min of treatment with hydroxyurea, the cells are washed in PBS, fixed for 10 min in 4% formaldehyde diluted in PBS (Polysciences Inc 18814), washed in 0.2% Tween-20 in PBS (wash buffer), and permeabilised for 10min in 0.5% Triton X-100 in PBS, all at room temperature. The cells are then washed once in wash buffer and blocked for 30 min at room temperature in 10% goat serum (Sigma G9023) diluted in wash buffer (block buffer). To detect H2AX phosphorylation levels, the cells are then incubated for 1 h at room temperature in primary antibody (mouse monoclonal anti-phosphorylated histone H2AX Ser139 antibody; Upstate 05-636) diluted 1:250 in block buffer. The cells are then washed five times in wash buffer before incubation for lh at room temperature in the dark in a mixture of secondary antibody (goat anti-mouse Alexa Fluor 488 conjugated antibody; Invitrogen A11029) and Hoechst stain (Invitrogen H3570); diluted 1:500 and 1:5000, respectively, in wash buffer. The cells are then washed five times in wash buffer and finally 100 ul PBS is added to each well before imaging.
# Cells are imaged for Alexa Fluor 488 and Hoechst intensity using the BD Pathway 855 Bioimager and Attovision software (BD Biosciences, Version 1.6/855) to quantify phosphorylated H2AX Ser139 and DNA staining, respectively. The percentage of phosphorylated H2AX-positive nuclei in a montage of 9 images at 20× magnification is then calculated for each well using BD Image Data Explorer software (BD Biosciences Version 2.2.15). Phosphorylated H2AX-positive nuclei are defined as Hoechst-positive regions of interest containing Alexa Fluor 488 intensity at 1.75-fold the average Alexa Fluor 488 intensity in cells not treated with hydroxyurea. The percentage of H2AX positive nuclei is finally plotted against concentration for each compound and IC50s for intracellular ATR inhibition are determined using Prism software (GraphPad Prism version 3.0cx for Macintosh, GraphPad Software, San Diego Calif., USA).
# [3] = test system: HCT116 colorectal cancer cells; assay: Single agent HCT116 activity, 96 h cell viability (MTS) assay; format: cell-based; conditions: Homo sapiens, HCT-116; 96 h MTS cell viability, compound alone; read-out: Single agent HT116 IC50
# Procedure: Compounds can be screened for single agent activity against HCT116 colorectal cancer cells using a 96 h cell viability (MTS) assay. HCT116 are plated at 470 cells per well in 96-well polystyrene plates (Costar 3596) in 150 μl of McCoy's 5A media (Sigma M8403) supplemented with 10% foetal bovine serum (JRH Biosciences 12003), Penicillin/Streptomycin solution diluted 1:100 (Sigma P7539), and 2 mM L-glumtamine (Sigma G7513), and allowed to adhere overnight at 37° C. in 5% CO2. Compounds are then added to the cell media in 2-fold serial dilutions from a top final concentration of 10 μM as a full matrix of concentrations in a final cell volume of 200 μl, and the cells are then incubated at 37° C. in 5% CO2. After 96 h, 40 μl of MTS reagent (Promega G358a) is added to each well and the cells are incubated for lh at 37° C. in 5% CO2. Finally, absorbance is measured at 490 nm using a SpectraMax Plus 384 reader (Molecular Devices) and IC50 values can be calculated.
# [4] = molecular target: T2, full-length ATR (Homo sapiens, UniProt Q13535); assay: ATR inhibition assay, radioactive-phosphate incorporation; format: biochemical; conditions: Ki(app); 5 nM full-length ATR, 10 μM ATP, 800 μM target peptide, 25° C.
# T2 construct: Assays were carried out at 25° C. in the presence of 5 nM full-length ATR
# Procedure: Compounds were screened for their ability to inhibit ATR kinase using a radioactive-phosphate incorporation assay. Assays were carried out in a mixture of 50 mM Tris/HCl (pH 7.5), 10 mM MgCl2 and 1 mM DTT. Final substrate concentrations were 10 μM [γ-33P]ATP (3 mCi 33P ATP/mmol ATP, Perkin Elmer) and 800 μM target peptide (ASELPASQPQPFSAKKK (SEQ. ID NO: 1)).
# Assays were carried out at 25° C. in the presence of 5 nM full-length ATR. An assay stock buffer solution was prepared containing all of the reagents listed above, with the exception of ATP and the test compound of interest. 13.5 μL of the stock solution was placed in a 96 well plate followed by addition of 2 μL of DMSO stock containing serial dilutions of the test compound (typically starting from a final concentration of 15 μM 3-fold serial dilutions) in duplicate (final DMSO concentration 7%). The plate was pre-incubated for 10 minutes at 25° C. and the reaction initiated by addition of 15 μL [γ-33P]ATP (final concentration 10 μM).
# The reaction was stopped after […] by the addition of 30 μL 0.1M phosphoric acid containing 2 mM ATP. A multiscreen phosphocellulose filter 96-well plate (Millipore, Cat no. MAPHN0B50) was pretreated with 100 μL 0.2M phosphoric acid prior to the addition of 45 μL of the stopped assay mixture. The plate was washed with 5×200 μL 0.2M phosphoric acid. After drying, 100 μL Optiphase ‘SuperMix’ liquid scintillation cocktail (Perkin Elmer) was added to the well prior to scintillation counting (1450 Microbeta Liquid Scintillation Counter, Wallac).
# After removing mean background values for all of the data points, Ki(app) data were calculated from non-linear regression analysis of the initial rate data using the Prism software package (GraphPad Prism version 3.0cx for Macintosh, GraphPad Software, San Diego, Calif., USA).
# T2 sequence (Q13535 whole entry): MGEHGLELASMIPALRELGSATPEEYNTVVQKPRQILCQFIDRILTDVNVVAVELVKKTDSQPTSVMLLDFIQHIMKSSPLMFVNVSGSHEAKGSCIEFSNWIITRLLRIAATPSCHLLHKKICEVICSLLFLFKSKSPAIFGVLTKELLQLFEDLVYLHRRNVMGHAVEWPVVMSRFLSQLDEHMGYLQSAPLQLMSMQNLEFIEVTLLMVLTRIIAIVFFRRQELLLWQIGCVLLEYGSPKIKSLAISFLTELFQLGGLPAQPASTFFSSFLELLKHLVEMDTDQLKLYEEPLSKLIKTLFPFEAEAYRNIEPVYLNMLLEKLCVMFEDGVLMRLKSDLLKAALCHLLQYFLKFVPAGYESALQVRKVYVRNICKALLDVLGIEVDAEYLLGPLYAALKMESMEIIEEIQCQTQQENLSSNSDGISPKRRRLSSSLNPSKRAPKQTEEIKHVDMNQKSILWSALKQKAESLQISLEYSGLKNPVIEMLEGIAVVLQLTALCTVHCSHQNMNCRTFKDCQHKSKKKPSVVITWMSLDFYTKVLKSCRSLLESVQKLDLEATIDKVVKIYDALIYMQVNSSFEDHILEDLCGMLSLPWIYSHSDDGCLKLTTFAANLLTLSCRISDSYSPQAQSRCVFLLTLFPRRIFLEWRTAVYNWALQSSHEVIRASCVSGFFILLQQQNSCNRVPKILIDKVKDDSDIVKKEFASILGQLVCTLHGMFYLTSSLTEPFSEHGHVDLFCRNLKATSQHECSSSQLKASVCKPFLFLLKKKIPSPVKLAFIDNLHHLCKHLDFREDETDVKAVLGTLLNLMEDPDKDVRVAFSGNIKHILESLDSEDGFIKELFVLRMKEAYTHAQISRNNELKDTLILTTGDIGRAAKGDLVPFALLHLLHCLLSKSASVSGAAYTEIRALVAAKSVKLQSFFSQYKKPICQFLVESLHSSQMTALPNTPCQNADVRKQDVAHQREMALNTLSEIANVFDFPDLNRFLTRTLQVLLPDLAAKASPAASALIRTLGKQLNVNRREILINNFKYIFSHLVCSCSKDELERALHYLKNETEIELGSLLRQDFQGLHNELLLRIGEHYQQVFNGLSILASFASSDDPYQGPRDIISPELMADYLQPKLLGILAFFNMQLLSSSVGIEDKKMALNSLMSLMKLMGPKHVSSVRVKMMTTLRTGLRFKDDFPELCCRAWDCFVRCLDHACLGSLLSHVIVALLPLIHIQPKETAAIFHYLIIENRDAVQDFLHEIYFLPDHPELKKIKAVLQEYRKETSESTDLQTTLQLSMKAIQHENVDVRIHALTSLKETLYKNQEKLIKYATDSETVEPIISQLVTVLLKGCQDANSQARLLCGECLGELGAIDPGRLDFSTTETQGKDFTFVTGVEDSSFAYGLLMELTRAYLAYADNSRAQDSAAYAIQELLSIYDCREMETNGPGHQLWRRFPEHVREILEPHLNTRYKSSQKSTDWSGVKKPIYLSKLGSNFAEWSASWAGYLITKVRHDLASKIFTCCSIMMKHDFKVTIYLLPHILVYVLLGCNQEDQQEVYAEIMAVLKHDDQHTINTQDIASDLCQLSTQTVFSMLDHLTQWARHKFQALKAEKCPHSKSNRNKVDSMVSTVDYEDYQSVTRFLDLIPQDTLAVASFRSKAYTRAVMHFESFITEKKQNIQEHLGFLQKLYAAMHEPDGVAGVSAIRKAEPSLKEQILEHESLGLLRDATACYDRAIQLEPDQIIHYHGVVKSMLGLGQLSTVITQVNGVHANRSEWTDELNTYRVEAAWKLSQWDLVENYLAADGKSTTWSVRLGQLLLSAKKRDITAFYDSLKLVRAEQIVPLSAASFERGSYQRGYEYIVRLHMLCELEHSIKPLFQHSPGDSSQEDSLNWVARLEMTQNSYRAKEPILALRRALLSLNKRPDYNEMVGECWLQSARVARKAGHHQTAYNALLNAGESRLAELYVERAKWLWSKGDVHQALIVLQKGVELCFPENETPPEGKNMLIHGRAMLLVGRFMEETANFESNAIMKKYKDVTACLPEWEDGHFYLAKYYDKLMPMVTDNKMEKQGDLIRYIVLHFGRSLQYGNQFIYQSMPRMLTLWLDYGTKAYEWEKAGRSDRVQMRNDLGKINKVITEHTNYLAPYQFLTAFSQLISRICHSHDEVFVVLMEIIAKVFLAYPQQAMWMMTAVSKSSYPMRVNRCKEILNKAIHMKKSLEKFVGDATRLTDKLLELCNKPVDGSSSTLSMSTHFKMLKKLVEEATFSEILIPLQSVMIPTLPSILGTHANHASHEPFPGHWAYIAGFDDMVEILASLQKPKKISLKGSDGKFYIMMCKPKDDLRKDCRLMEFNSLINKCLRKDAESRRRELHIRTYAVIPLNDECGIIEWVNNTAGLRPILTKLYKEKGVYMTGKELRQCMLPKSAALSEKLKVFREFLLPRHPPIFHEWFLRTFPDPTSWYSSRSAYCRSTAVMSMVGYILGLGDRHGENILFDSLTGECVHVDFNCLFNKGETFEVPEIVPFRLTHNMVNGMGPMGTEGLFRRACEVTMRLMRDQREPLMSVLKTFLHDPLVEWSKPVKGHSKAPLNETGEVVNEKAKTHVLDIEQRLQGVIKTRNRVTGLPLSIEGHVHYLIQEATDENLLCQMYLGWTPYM
# T1 sequence (Q13535 whole entry): as above
# T1 sequence (Q8WXE1 whole entry partner): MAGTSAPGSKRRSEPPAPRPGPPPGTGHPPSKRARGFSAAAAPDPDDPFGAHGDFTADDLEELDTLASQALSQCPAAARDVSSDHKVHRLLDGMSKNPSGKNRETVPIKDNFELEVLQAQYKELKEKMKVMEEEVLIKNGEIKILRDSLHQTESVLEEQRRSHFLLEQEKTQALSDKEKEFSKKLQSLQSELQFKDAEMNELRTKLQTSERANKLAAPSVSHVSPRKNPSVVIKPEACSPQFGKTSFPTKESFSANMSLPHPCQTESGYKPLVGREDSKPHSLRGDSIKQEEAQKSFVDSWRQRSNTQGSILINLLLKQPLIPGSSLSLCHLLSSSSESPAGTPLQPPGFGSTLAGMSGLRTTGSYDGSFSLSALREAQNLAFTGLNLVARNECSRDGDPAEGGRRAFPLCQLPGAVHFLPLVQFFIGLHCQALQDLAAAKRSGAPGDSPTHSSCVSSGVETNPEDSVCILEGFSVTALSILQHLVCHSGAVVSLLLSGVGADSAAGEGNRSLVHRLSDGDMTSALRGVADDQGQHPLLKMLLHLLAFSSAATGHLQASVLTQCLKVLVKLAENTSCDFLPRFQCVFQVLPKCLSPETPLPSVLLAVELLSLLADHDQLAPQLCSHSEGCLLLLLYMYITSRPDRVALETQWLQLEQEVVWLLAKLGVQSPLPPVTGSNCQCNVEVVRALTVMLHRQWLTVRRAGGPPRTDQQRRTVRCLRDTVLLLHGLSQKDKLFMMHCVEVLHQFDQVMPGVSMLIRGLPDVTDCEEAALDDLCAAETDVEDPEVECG
SMILES,IC50 [2],IC50 [3],Ki [4],Cisplatin sensitization [1]
"CC(C)S(=O)(=O)c1ccc(-c2cnc(N)c(-c3cc(-c4ccc(NCC5CCCCN5)cc4)no3)n2)cc1 (stereo not drawn) [Compound I-1, 5-(4-isopropylsulfonylphenyl)-3-[3-[4-(2-piperidylmethylamino)phenyl]isoxazol-5-yl]pyrazin-2-amine]",62 nM,210 nM,0.635 nM,156 nM
"CC(C)S(=O)(=O)c1ccc(-c2cnc(N)c(-c3cc(-c4ccc(NCC5CCN5)cc4)no3)n2)cc1 (stereo not drawn) [Compound I-2, 3-[3-[4-(azetidin-2-ylmethylamino)phenyl]isoxazol-5-yl]-5-(4-isopropylsulfonylphenyl)pyrazin-2-amine]",40 nM,140 nM,0.6 nM,78 nM
"CC(C)S(=O)(=O)c1ccc(-c2cnc(N)c(-c3cc(-c4ccc(NC[C@@H]5CCCN5)cc4)no3)n2)cc1 [Compound I-3, (S)-5-(4-(isopropylsulfonyl)phenyl)-3-(3-(4-((pyrrolidin-2-ylmethyl)amino)phenyl)isoxazol-5-yl)pyrazin-2-amine]",14 nM,83 nM,0.49 nM,20 nM
"CC(C)S(=O)(=O)c1ccc(-c2cnc(N)c(-c3cc(-c4ccc(NCCN(C)C)cc4)no3)n2)cc1 [Compound I-6, N-(4-(5-(3-amino-6-(4-(isopropylsulfonyl)phenyl)pyrazin-2-yl)isoxazol-3-yl)phenyl)-N,N-dimethylethane-1,2-diamine]",260 nM,720 nM,0.405 nM,78 nM

# Now those with a lower IC50 [2], led by results:
IC50 [2],IC50 [3],Ki [4],SMILES,Cisplatin sensitization [1]
13 nM,52 nM,0.35 nM,"CC(C)S(=O)(=O)c1ccc(-c2cnc(N)c(-c3cc(-c4ccc(NC[C@H]5CCCN5)cc4)no3)n2)cc1 [Compound I-4, (R)-5-(4-(isopropylsulfonyl)phenyl)-3-(3-(4-((pyrrolidin-2-ylmethyl)amino)phenyl)isoxazol-5-yl)pyrazin-2-amine]",39 nM
< 10 nM,26 nM,< 0.1 nM,"CC(C)S(=O)(=O)c1ccc(-c2cnc(N)c(-c3cc(-c4ccc(NCC5CCCN5)cc4)no3)n2)cc1 (stereo not drawn) [Compound I-5, 5-(4-isopropylsulfonylphenyl)-3-[3-[4-(pyrrolidin-2-ylmethylamino)phenyl]isoxazol-5-yl]pyrazin-2-amine]",20 nM
